# From EPA's ToxRefDB 2
# Key:
# [1] = tested on: rat; conditions: Multigenerational reproductive toxicity study, wistar, Oral, Feed, dose end: 2 generation
# [2] = tested on: rabbit; conditions: Prenatal developmental toxicity study, new zealand white, Oral, Gavage/Intubation, dose end: 19 GD
# [3] = tested on: rabbit; conditions: Prenatal developmental toxicity study, himalayan, Oral, Gavage/Intubation, dose end: 18 GD
# [4] = tested on: rat; conditions: Prenatal developmental toxicity study, wistar, Oral, Gavage/Intubation, dose end: 16 GD
# [5] = tested on: rat; conditions: Prenatal developmental toxicity study, sprague dawley, Inhalation, Whole-Body, dose end: 20 GD
# [6] = tested on: rat; conditions: Multigenerational reproductive toxicity study, other, Oral, Feed, dose end: 2 generation
# [7] = tested on: rat; conditions: Prenatal developmental toxicity study, sprague dawley, Oral, Gavage/Intubation, dose end: 15 GD
# [8] = tested on: mouse; conditions: Prenatal developmental toxicity study, cd1, Oral, Gavage/Intubation, dose end: 15 GD
# [9] = tested on: rat; conditions: Prenatal developmental toxicity study, other, Oral, Gavage/Intubation, dose end: 15 GD
# [10] = tested on: rat; conditions: Subchronic oral toxicity in rodents, sprague dawley, Feed, dose end: 13 week
# [11] = tested on: rat; conditions: Prenatal developmental toxicity study, sprague dawley, Oral, Gavage/Intubation, dose end: 16 GD
# [12] = tested on: rat; conditions: Multigenerational reproductive toxicity study, other, Oral, Feed, dose end: 2 generation; remark: listed apart in the source
# [13] = tested on: rat; conditions: Subchronic oral toxicity in rodents, sprague dawley, Feed, dose end: 3 month
# [14] = tested on: rabbit; conditions: Prenatal developmental toxicity study, other, Oral, Gavage/Intubation, dose end: 18 GD
# [15] = tested on: hamster; conditions: Prenatal developmental toxicity study, golden syrian, Oral, Gavage/Intubation, dose end: 15 GD
# [16] = group: offspring, systemic / in life observation / body weight / offspring (pup) weight + systemic / organ weight / spleen / absolute + systemic / organ …
# [17] = group: parental, systemic / organ weight / spleen / absolute
# [18] = group: parental, systemic / organ weight / spleen / absolute + systemic / in life observation / body weight / body weight gain + systemic / pathology …
# [19] = group: reproductive, reproductive / reproductive performance / estrous cycle / abnormal
# [20] = group: developmental, developmental / developmental malformation / brain / hydrocephaly + developmental / developmental malformation / bone / domed head
# [21] = group: maternal, reproductive / reproductive performance / postimplantation loss / postimplantation loss + reproductive / reproductive performance / …
# [22] = group: developmental, developmental / developmental malformation / bone / [other] + developmental / developmental malformation / bone / fragmented + developmental…
# [23] = group: maternal, systemic / in life observation / mortality / mortality + systemic / in life observation / clinical signs / [other] + systemic / in life …
# [24] = group: developmental, developmental / developmental malformation / bone / bent
# [25] = group: maternal, systemic / in life observation / body weight / body weight + systemic / in life observation / body weight / body weight gain + systemic / in…
# [26] = group: developmental, systemic / in life observation / body weight / fetal weight
# [27] = group: developmental, systemic / in life observation / body weight / fetal weight + developmental / developmental malformation / bone / incomplete ossification
# [28] = group: maternal, systemic / in life observation / body weight / body weight gain + systemic / in life observation / food consumption / food consumption
# [29] = group: parental, systemic / in life observation / body weight / body weight + systemic / in life observation / body weight / body weight gain
# [30] = group: reproductive, reproductive / reproductive performance / fertility / fertility + reproductive / reproductive performance / precoital interval / precoital …
# [31] = group: developmental, developmental / developmental malformation / bone / fragmented + developmental / developmental malformation / bone / unossified + …
# [32] = group: maternal, systemic / in life observation / body weight / body weight gain + systemic / in life observation / mortality / mortality + systemic / …
# [33] = group: maternal, systemic / in life observation / water consumption / water consumption
# [34] = group: maternal, systemic / in life observation / water consumption / water consumption + systemic / in life observation / clinical signs / altered breathing…
# [35] = group: developmental, developmental / developmental malformation / bone / [other] + developmental / developmental malformation / bone / discontinuous
# [36] = group: developmental, developmental / developmental malformation / bone / [other] + developmental / developmental malformation / bone / discontinuous + …
# [37] = group: maternal, systemic / in life observation / water consumption / water consumption + systemic / in life observation / body weight / body weight gain + …
# [38] = group: maternal, reproductive / reproductive performance / estrous cycle / length
# [39] = group: systemic, systemic / clinical chemistry / calcium / calcium + systemic / clinical chemistry / globulins / globulins + systemic / clinical chemistry / …
# [40] = group: developmental, developmental / developmental malformation / bone / incomplete ossification + developmental / developmental malformation / bone / unossified…
# [41] = group: maternal, systemic / in life observation / body weight / body weight gain
# [42] = group: maternal, systemic / in life observation / body weight / body weight gain + reproductive / reproductive performance / postimplantation loss / …
# [43] = group: offspring, systemic / in life observation / body weight / offspring (pup) weight
# [44] = group: offspring, systemic / in life observation / body weight / offspring (pup) weight + developmental / developmental malformation / bone / extra …
# [45] = group: parental, systemic / pathology microscopic / spleen / hemosiderosis
# [46] = group: parental, systemic / pathology microscopic / spleen / hemosiderosis + systemic / in life observation / body weight / body weight gain + systemic / in …
# [47] = group: cholinesterase, cholinesterase / cholinesterase / cholinesterase / cholinesterase (che)
# [48] = group: systemic, systemic / hematology / anemia / anemia - hemolytic + systemic / in life observation / body weight / body weight gain + systemic / in life …
# [49] = group: systemic, systemic / hematology / blood clotting / blood clotting - activated partial thromboplastin time + systemic / hematology / blood clotting / …
# [50] = group: developmental, developmental / developmental malformation / bone / full supernumerary + systemic / in life observation / body weight / fetal weight
# [51] = group: developmental, developmental / developmental malformation / bone / full supernumerary + systemic / in life observation / body weight / fetal weight + …
# [52] = group: maternal, systemic / in life observation / body weight / body weight gain + systemic / in life observation / food consumption / food consumption + …
# [53] = group: developmental, developmental / developmental malformation / bone / [other] + developmental / developmental malformation / bone / absent + developmental / …
# [54] = group: maternal, systemic / in life observation / clinical signs / ataxia + systemic / in life observation / clinical signs / body temperature + systemic / …
smiles,measurement,setting,value
Cc1cc(C)c(C2=C(OC(=O)CC(C)(C)C)C3(CCCC3)OC2=O)c(C)c1 [Spiromesifen],LEL,[1]; [16],13.2 mg/kg/day
same,LOAEL,[1]; [16],13.2 mg/kg/day
same,NEL,[1]; [16],3.3 mg/kg/day
same,NOAEL,[1]; [16],3.3 mg/kg/day
same,LEL,[1]; [17],13.2 mg/kg/day
same,LOAEL,[1]; [17],13.2 mg/kg/day
same,NEL,[1]; [18],3.3 mg/kg/day
same,NOAEL,[1]; [18],3.3 mg/kg/day
same,LEL,[1]; [19],18 mg/kg/day
same,LOAEL,[1]; [19],18 mg/kg/day
same,NEL,[1]; [19],4.6 mg/kg/day
same,NOAEL,[1]; [19],4.6 mg/kg/day
O=c1[nH]c(=O)[nH]c(=O)[nH]1 [Cyanuric acid],LOAEL,"[2]; group: developmental, developmental / developmental malformation / brain / hydrocephaly",500 mg/kg/day
same,LEL,[2]; [20],500 mg/kg/day
same,NEL,[2]; [20],200 mg/kg/day
same,NOAEL,[2]; [20],200 mg/kg/day
same,LEL,[2]; [21],500 mg/kg/day
same,LOAEL,[2]; [21],> 500 mg/kg/day
same,NEL,[2]; [21],200 mg/kg/day
same,NOAEL,[2]; [21],≥ 500 mg/kg/day
CCOC(=O)C1=NOC(c2ccccc2)(c2ccccc2)C1 [Isoxadifen-ethyl],LEL,[3]; [22],500 mg/kg/day
same,LOAEL,[3]; [22],500 mg/kg/day
same,NEL,[3]; [22],50 mg/kg/day
same,NOAEL,[3]; [22],50 mg/kg/day
same,LOAEL,"[3]; group: maternal, systemic / in life observation / mortality / mortality",500 mg/kg/day
same,LEL,[3]; [23],500 mg/kg/day
same,NEL,[3]; [23],50 mg/kg/day
same,NOAEL,[3]; [23],50 mg/kg/day
same,LEL,[4]; [24],120 mg/kg/day
same,LOAEL,[4]; [24],120 mg/kg/day
same,NEL,[4]; [24],15 mg/kg/day
same,NOAEL,[4]; [24],15 mg/kg/day
same,LEL,[4]; [25],1000 mg/kg/day
same,LOAEL,[4]; [25],1000 mg/kg/day
same,NEL,[4]; [25],120 mg/kg/day
same,NOAEL,[4]; [25],120 mg/kg/day
"Cc1cc(C)cc(C)c1 [1,3,5-Trimethylbenzene]",LEL,[5]; [26],600 ppm
same,LOAEL,[5]; [26],600 ppm
same,NEL,[5]; [27],300 ppm
same,NOAEL,[5]; [27],300 ppm
same,LEL,[5]; [28],300 ppm
same,LOAEL,[5]; [28],300 ppm
same,NEL,[5]; [28],100 ppm
same,NOAEL,[5]; [28],100 ppm
C[C@H]1O[C@H](OC2[C@@H](O)[C@@H](O)C(O)[C@H](O)[C@H]2O)[C@@H](N)C[C@@H]1N=C(N)C(=O)O (some centres undefined) [Kasugamycin],LEL,[6]; [29],70.3 mg/kg/day
same,LOAEL,[6]; [29],70.3 mg/kg/day
same,NEL,[6]; [29],13.7 mg/kg/day
same,NOAEL,[6]; [29],13.7 mg/kg/day
same,LEL,[6]; [30],425 mg/kg/day
same,LOAEL,[6]; [30],425 mg/kg/day
same,NEL,[6]; [30],70.3 mg/kg/day
same,NOAEL,[6]; [30],70.3 mg/kg/day
[Li+].[O-]Cl [Lithium hypochlorite],LOAEL,[7]; [31],500 mg/kg/day
same,NEL,[7]; [31],10 mg/kg/day
same,NOAEL,[7]; [31],100 mg/kg/day
same,LEL,"[7]; group: developmental, developmental / developmental malformation / bone / kinked + developmental / developmental malformation / bone / thread-like + developmental…",50 mg/kg/day
same,LEL,[7]; [32],500 mg/kg/day
same,LOAEL,[7]; [32],500 mg/kg/day
same,NEL,[7]; [32],100 mg/kg/day
same,NOAEL,[7]; [32],100 mg/kg/day
OCCOCCO [Diethylene glycol],LEL,[8]; [26],11200 mg/kg/day
same,LOAEL,[8]; [26],11200 mg/kg/day
same,NEL,[8]; [26],2800 mg/kg/day
same,NOAEL,[8]; [26],2800 mg/kg/day
same,LEL,[8]; [33],2800 mg/kg/day
same,LOAEL,[8]; [33],2800 mg/kg/day
same,NEL,[8]; [34],559 mg/kg/day
same,NOAEL,[8]; [34],559 mg/kg/day
same,LEL,[9]; [35],4470 mg/kg/day
same,LOAEL,[9]; [35],4470 mg/kg/day
same,NEL,[9]; [36],1120 mg/kg/day
same,NOAEL,[9]; [36],1120 mg/kg/day
same,LEL,[9]; [33],4470 mg/kg/day
same,LOAEL,[9]; [33],4470 mg/kg/day
same,NEL,[9]; [37],1120 mg/kg/day
same,NOAEL,[9]; [37],1120 mg/kg/day
"Nc1nc(N)nc(Cl)n1 [2-Chloro-4,6-diamino-1,3,5-triazine]",LEL,[10]; [38],7.6 mg/kg/day
same,LOAEL,[10]; [38],7.6 mg/kg/day
same,NEL,[10]; [38],0.7 mg/kg/day
same,NOAEL,[10]; [38],0.7 mg/kg/day
same,LOAEL,[10]; [39],> 34.1 mg/kg/day
same,NEL,[10]; [39],6.7 mg/kg/day
same,NOAEL,[10]; [39],≥ 34.1 mg/kg/day
same,LEL,"[10]; group: systemic, systemic / clinical chemistry / protein / protein",16.7 mg/kg/day
same,LEL,[11]; [40],25 mg/kg/day
same,LOAEL,[11]; [40],25 mg/kg/day
same,NEL,[11]; [40],2.5 mg/kg/day
same,NOAEL,[11]; [40],2.5 mg/kg/day
same,LEL,[11]; [41],75 mg/kg/day
same,LOAEL,[11]; [41],75 mg/kg/day
same,NEL,[11]; [42],25 mg/kg/day
same,NOAEL,[11]; [42],25 mg/kg/day
C#CCN1CC(=O)N(COC(=O)C2C(C=C(C)C)C2(C)C)C1=O (centres undefined) [Imiprothrin],NEL,[12]; [43],126 mg/kg/day
same,NOAEL,[12]; [43],126 mg/kg/day
same,LEL,[12]; [44],369 mg/kg/day
same,LOAEL,[12]; [44],369 mg/kg/day
same,LEL,[12]; [45],144 mg/kg/day
same,LOAEL,[12]; [45],144 mg/kg/day
same,NEL,[12]; [46],14.7 mg/kg/day
same,NOAEL,[12]; [46],14.7 mg/kg/day
same,LEL,[13]; [47],399 mg/kg/day
same,LOAEL,[13]; [47],> 657 mg/kg/day
same,NEL,[13]; [47],197 mg/kg/day
same,NOAEL,[13]; [47],≥ 657 mg/kg/day
same,LOAEL,[13]; [48],179 mg/kg/day
same,NOAEL,[13]; [48],5.9 mg/kg/day
same,LEL,[13]; [49],5.9 mg/kg/day
same,NEL,[13]; [49],< 5.9 mg/kg/day
same,LEL,[14]; [50],100 mg/kg/day
same,LOAEL,[14]; [50],100 mg/kg/day
same,NEL,[14]; [51],30 mg/kg/day
same,NOAEL,[14]; [51],30 mg/kg/day
same,LOAEL,[14]; [28],100 mg/kg/day
same,LEL,[14]; [52],100 mg/kg/day
same,NEL,[14]; [52],30 mg/kg/day
same,NOAEL,[14]; [52],30 mg/kg/day
CC(C)(C#N)O[C@@H]1O[C@H](CO)[C@@H](O)[C@H](O)[C@H]1O [Linamarin],LOAEL,[15]; [53],> 140 mg/kg/day
same,NEL,[15]; [53],100 mg/kg/day
same,NOAEL,[15]; [53],≥ 140 mg/kg/day
same,LEL,"[15]; group: developmental, developmental / developmental malformation / bone / absent + developmental / developmental malformation / bone / meningoencephalocele",120 mg/kg/day
same,LEL,[15]; [54],100 mg/kg/day
same,LOAEL,[15]; [54],> 140 mg/kg/day
same,NEL,[15]; [54],70 mg/kg/day
same,NOAEL,[15]; [54],≥ 140 mg/kg/day
